{
  "source": "patent US6319702A",
  "about": "“Nucleic acids encoding mutant human carboxypeptidase A enzymes” (Glaxo Wellcome, Inc., priority 1993, dated 2001)",
  "key": {"[1]": {"target": "T1, wild type human carboxypeptidase A1 (Homo sapiens, UniProt P15085)", "T1 sequence (P15085 111-419)": "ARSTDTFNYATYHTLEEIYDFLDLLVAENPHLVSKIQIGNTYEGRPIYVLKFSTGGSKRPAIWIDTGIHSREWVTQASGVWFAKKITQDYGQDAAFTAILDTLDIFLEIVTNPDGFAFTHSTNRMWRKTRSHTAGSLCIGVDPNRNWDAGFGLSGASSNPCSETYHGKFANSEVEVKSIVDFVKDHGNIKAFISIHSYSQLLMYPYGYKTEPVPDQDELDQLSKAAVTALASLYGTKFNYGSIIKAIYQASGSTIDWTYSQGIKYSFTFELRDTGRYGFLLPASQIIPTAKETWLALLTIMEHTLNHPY", "test": "Enzyme kinetics of prodrugs with wild type human carboxypeptidase A1 (coupled assay)", "type": "biochemical", "text": "As indicated herein, the in vivo stable prodrug of the present invention should be a better substrate for a mutant enzyme than the corresponding wild type enzyme in order for the stable prodrug to be activated selectively at the tumour. […] The most relevant kinetic constant in the table is the kcat/Km, which provides an estimate of the second order rate constant for the enzyme catalyzed conversion of prodrug to methotrexate. Thus, the larger the kcat/Km, the more efficient the enzyme with a particular substrate. […] Thus, the single mutation at 268 from thr to gly converted very poor substrates in the wild type enzyme to excellent substrates in the mutant enzyme. […] Thus, the compounds are much better substrates for the mutant enzyme than the wild type enzyme which permits very specific tumor targeted activation of the nontoxic, stable prodrug to the active agent.\nKinetics were determined by a modification of the coupled assay of Kuefner, et al (1989) Biochemistry 28 2288-2297 in which the product MTX is converted by excess carboxypeptidase G to the pteroate of MTX. In this assay the reaction is followed spectrophotometrically at 315 nm; at this wavelength the change in molar absorbtivity for the coupled reaction was determined to be 9.57 mM^-1 cm^-1. Assays were performed at 25° C. in 25 mM tris-HCl, 100 mM NaCl, pH 7.4. Prodrugs were preincubated at 25° C. with buffer and 17 milliunits of Sigma #C-9658 carboxypeptidase G in 1 ml total volume. Assay was initiated with carboxypeptidase A or the appropriate mutant. Initial velocities were obtained, and standard Michaelis-Menten calculations were used to determine kinetic constants (in Biochemistry, Lehninger, A. L. 1970, Worth Publishers, Inc, NY)."}, "[2]": {"system": "mutant enzyme", "test": "Substrate behaviour with mutant enzyme", "type": "biochemical, human", "text": "This type of compound is not useful for ADEPT."}, "[3]": {"test": "Stability and biodistribution of prodrugs in vivo (HPLC of plasma and tissues)", "design": "species or system mice (CD-1 nude; BALB/C where indicated)"}},
  "note": "Like-named read-outs stand apart in the source and are kept apart here.",
  "data": [
    {"smiles": "Nc1nc(N)c(CCCNc2ccc(C(=O)N[C@@H](CCC(=O)O)C(=O)N[C@@H](Cc3cccc(C4CCCC4)c3)C(=O)O)cc2)c(=O)[nH]1", "note": "[Prodrug 14, N-(4-((3(2,4-diamino-1,6-dihydro-6-oxo-5-pyrimidinyl)propyl)amino)benzoyl)-L-glutam-1-yl-3-cyclopentyl-L-phenylalanine]", "values": [
      {"measurement": "substrate for wild type CPA (in words)", "setting": "[1]", "result": "not for the wild type enzyme"},
      {"measurement": "substrate for a mutant enzyme (in words)", "setting": "[2]", "result": "good substrates for a mutant enzyme"},
      {"measurement": "concentration of prodrug in cecum", "setting": "[3]; CECUM, 30 min, 50 mg/kg i.p. or i.v., CD-1 nude mice", "result": "4.", "unit": "l"},
      {"measurement": "concentration of prodrug in cecum", "setting": "[3]; CECUM, 120 min, 50 mg/kg i.p. or i.v., CD-1 nude mice", "result": 65.3, "unit": "nmol/g"},
      {"measurement": "concentration of prodrug in feces", "setting": "[3]; FECES, 30 min, 50 mg/kg i.p. or i.v., CD-1 nude mice", "result": 535.0, "unit": "nmol/g"},
      {"measurement": "concentration of prodrug in feces", "setting": "[3]; FECES, 120 min, 50 mg/kg i.p. or i.v., CD-1 nude mice", "result": 932.8, "unit": "nmol/g"},
      {"measurement": "concentration of prodrug in kidney", "setting": "[3]; KIDNEY, 30 min, 50 mg/kg i.p. or i.v., CD-1 nude mice", "result": 4.6, "unit": "nmol/g"},
      {"measurement": "concentration of prodrug in large intestine", "setting": "[3]; LARGE INTESTINE, 30 min, 50 mg/kg i.p. or i.v., CD-1 nude mice", "result": 9.4, "unit": "nmol/g"},
      {"measurement": "concentration of prodrug in large intestine", "setting": "[3]; LARGE INTESTINE, 120 min, 50 mg/kg i.p. or i.v., CD-1 nude mice", "result": 34.6, "unit": "nmol/g"},
      {"measurement": "concentration of prodrug in liver", "setting": "[3]; LIVER, 30 min, 50 mg/kg i.p. or i.v., CD-1 nude mice", "result": 22.5, "unit": "nmol/g"},
      {"measurement": "concentration of prodrug in liver", "setting": "[3]; LIVER, 120 min, 50 mg/kg i.p. or i.v., CD-1 nude mice", "result": 42.1, "unit": "nmol/g"},
      {"measurement": "concentration of prodrug in small intestine", "setting": "[3]; SMALL INTESTINE, 30 min, 50 mg/kg i.p. or i.v., CD-1 nude mice", "result": 218.3, "unit": "nmol/g"},
      {"measurement": "concentration of prodrug in small intestine", "setting": "[3]; SMALL INTESTINE, 120 min, 50 mg/kg i.p. or i.v., CD-1 nude mice", "result": 127.8, "unit": "nmol/g"},
      {"measurement": "concentration of prodrug in spleen", "setting": "[3]; SPLEEN, 30 min, 50 mg/kg i.p. or i.v., CD-1 nude mice", "result": 2.4, "unit": "nmol/g"},
      {"measurement": "stability in vivo (in words)", "setting": "[3]; mice, 50 mg/kg", "result": "stable in vivo"},
      {"measurement": "remaining at 0.5 h", "setting": "[3]; mouse, cecum, 50 mg/kg, CECUM, 30 min, 50 mg/kg i.p. or i.v., CD-1 nude mice, read-out: stability: percentage of material observed as intact prodrug, cecum", "result": 100, "unit": "%"},
      {"measurement": "remaining at 2 h", "setting": "[3]; mouse, cecum, 50 mg/kg, CECUM, 120 min, 50 mg/kg i.p. or i.v., CD-1 nude mice, read-out: stability: percentage of material observed as intact prodrug, cecum", "result": 48.8, "unit": "%"},
      {"measurement": "remaining at 0.5 h", "setting": "[3]; mouse, feces, 50 mg/kg, FECES, 30 min, 50 mg/kg i.p. or i.v., CD-1 nude mice, read-out: stability: percentage of material observed as intact prodrug, feces (converted)", "result": 90.7, "unit": "%"},
      {"measurement": "remaining at 2 h", "setting": "[3]; mouse, feces, 50 mg/kg, FECES, 120 min, 50 mg/kg i.p. or i.v., CD-1 nude mice, read-out: stability: percentage of material observed as intact prodrug, feces", "result": 88, "unit": "%"},
      {"measurement": "remaining at 0.5 h", "setting": "[3]; mouse, kidney, 50 mg/kg, KIDNEY, 30 min, 50 mg/kg i.p. or i.v., CD-1 nude mice, read-out: stability: percentage of material observed as intact prodrug, kidney", "result": 100, "unit": "%"},
      {"measurement": "remaining at 0.5 h", "setting": "[3]; mouse, large intestine, 50 mg/kg, LARGE INTESTINE, 30 min, 50 mg/kg i.p. or i.v., CD-1 nude mice, read-out: stability: percentage of material observed as intact prodrug, large intestine", "result": 100, "unit": "%"},
      {"measurement": "remaining at 2 h", "setting": "[3]; mouse, large intestine, 50 mg/kg, LARGE INTESTINE, 120 min, 50 mg/kg i.p. or i.v., CD-1 nude mice, read-out: stability: percentage of material observed as intact prodrug, large intestine", "result": 76.8, "unit": "%"},
      {"measurement": "remaining at 0.5 h", "setting": "[3]; mouse, liver, 50 mg/kg, LIVER, 30 min, 50 mg/kg i.p. or i.v., CD-1 nude mice, read-out: stability: percentage of material observed as intact prodrug, liver (converted)", "result": 100, "unit": "%"},
      {"measurement": "remaining at 2 h", "setting": "[3]; mouse, liver, 50 mg/kg, LIVER, 120 min, 50 mg/kg i.p. or i.v., CD-1 nude mice, read-out: stability: percentage of material observed as intact prodrug, liver", "result": 100, "unit": "%"},
      {"measurement": "concentration at 0.5 h", "setting": "[3]; mouse, plasma, 50 mg/kg, PLASMA, 30 min, 50 mg/kg i.p. or i.v., CD-1 nude mice, read-out: concentration of prodrug in plasma", "result": 1100, "unit": "nM"},
      {"measurement": "remaining at 0.5 h", "setting": "[3]; mouse, plasma, 50 mg/kg, PLASMA, 30 min, 50 mg/kg i.p. or i.v., CD-1 nude mice, read-out: stability: percentage of material observed as intact prodrug, plasma", "result": 100, "unit": "%"},
      {"measurement": "remaining at 0.5 h", "setting": "[3]; mouse, small intestine, 50 mg/kg, SMALL INTESTINE, 30 min, 50 mg/kg i.p. or i.v., CD-1 nude mice, read-out: stability: percentage of material observed as intact prodrug, small intestine", "result": 100, "unit": "%"},
      {"measurement": "remaining at 2 h", "setting": "[3]; mouse, small intestine, 50 mg/kg, SMALL INTESTINE, 120 min, 50 mg/kg i.p. or i.v., CD-1 nude mice, read-out: stability: percentage of material observed as intact prodrug, small intestine", "result": 100, "unit": "%"},
      {"measurement": "remaining at 0.5 h", "setting": "[3]; mouse, spleen, 50 mg/kg, SPLEEN, 30 min, 50 mg/kg i.p. or i.v., CD-1 nude mice, read-out: stability: percentage of material observed as intact prodrug, spleen", "result": 100, "unit": "%"}
    ]}
  ]
}
